This note sets out measurements from patent US12428415B2, “Matriptase 2 inhibitors and uses thereof” (Disc Medicine, Inc., priority 2018, dated 2025).

A word on the inhibition: it is the relative decrease from the control value, in per cent.

The experiment has as its target T1, Human Recombinant Matriptase 2 (Homo sapiens, UniProt Q8IU80).
T1 construct: purchased Enzo Life Sciences (an in-house preparation was also used) ALX-201-752-1
T1 sequence (Q8IU80 1-811): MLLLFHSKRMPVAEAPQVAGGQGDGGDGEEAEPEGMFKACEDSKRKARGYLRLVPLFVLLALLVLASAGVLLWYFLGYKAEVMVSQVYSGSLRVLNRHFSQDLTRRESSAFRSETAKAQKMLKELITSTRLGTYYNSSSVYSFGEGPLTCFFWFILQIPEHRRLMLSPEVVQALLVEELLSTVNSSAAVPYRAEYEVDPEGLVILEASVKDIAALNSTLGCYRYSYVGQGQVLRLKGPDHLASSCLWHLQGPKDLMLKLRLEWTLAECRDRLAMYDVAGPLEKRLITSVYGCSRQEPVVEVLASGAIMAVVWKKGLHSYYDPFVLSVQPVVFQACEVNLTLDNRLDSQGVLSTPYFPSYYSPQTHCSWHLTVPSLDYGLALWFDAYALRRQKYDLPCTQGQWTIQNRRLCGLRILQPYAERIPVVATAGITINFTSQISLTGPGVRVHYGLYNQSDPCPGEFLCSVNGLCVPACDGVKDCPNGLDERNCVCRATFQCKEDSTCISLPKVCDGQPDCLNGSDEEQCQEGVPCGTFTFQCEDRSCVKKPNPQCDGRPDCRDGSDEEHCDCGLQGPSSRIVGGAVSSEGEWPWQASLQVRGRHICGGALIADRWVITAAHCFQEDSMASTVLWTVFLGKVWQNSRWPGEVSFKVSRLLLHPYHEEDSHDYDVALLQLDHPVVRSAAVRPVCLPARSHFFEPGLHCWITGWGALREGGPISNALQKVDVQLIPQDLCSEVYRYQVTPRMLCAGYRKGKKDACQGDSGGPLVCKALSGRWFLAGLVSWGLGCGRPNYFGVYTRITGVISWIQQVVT
As to the kind of experiment: Matriptase 2 fluorescence based inhibition assay, Method A (100 mM TRIS pH 9, 1 mg/mL BSA). It counts as biochemical. Particulars: at 1 uM; Assay Used = A; read-out: Mar-2 % inhibition at 1 uM. The procedure, abridged: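 At 25° C in 100 mM TRIS pH 9 with 1 mg/mL BSA and 1% DMSO, compounds were preincubated 30 min with 7 nM commercial or 15 nM in-house protein before adding 100 μM Boc-Gln-Ala-Arg-7-amido-4-methyl coumarin. Fluorescence at 360/480 nm after 60 min; single points at 1 and 10 μM, IC50 by variable-slope nonlinear regression.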

With `CCOC(=O)Nc1c(C(=O)N[C@H]2CC[C@H](N)CC2)n(Cc2ccc(Oc3ccccc3)cc2)c2cc(C(=N)NO)ccc12` [Compound I-254, Ethyl (2-(((1r,4r)-4-aminocyclohexyl)carbamoyl)-6-((Z)—N′-hydroxycarbamimidoyl)-1-(4-phenoxybenzyl)-1H-indol-3-yl)carbamate], the inhibition at 1 µM lay in the range of 25 to 50%.

Turning to `N=C(N)c1ccc2cc(C(=O)N[C@H]3CC[C@H](N)CC3)n(Cc3cccc(N)c3)c2c1` [Compound I-256, 1-(3-Aminobenzyl)-N-((1r,4r)-4-aminocyclohexyl)-6-carbamimidoyl-1H-indole-2-carboxamide], the inhibition at 1 µM lay within 25 to 50%.

`N=C(N)c1ccc2cc(C(=O)N[C@H]3CC[C@H](N)CC3)n(Cc3cccc(NC(=O)CCN)c3)c2c1` [Compound I-257, N-((1r,4r)-4-aminocyclohexyl)-1-(3-(3-aminopropanamido)benzyl)-6-carbamimidoyl-1H-indole-2-carboxamide]: the inhibition at 1 µM fell in the range of 50 to 75%.

In the case of `N=C(N)c1ccc2cc(C(=O)N[C@H]3CC[C@H](N)CC3)n(Cc3cccc(NC(=O)C4CNC4)c3)c2c1` [Compound I-258, N-((1r,4r)-4-Aminocyclohexyl)-1-(3-(azetidine-3-carboxamido)benzyl)-6-carbamimidoyl-1H-indole-2-carboxamide], the inhibition at 1 µM was 50 to 75%.

As for `N=C(N)c1ccc2cc(C(=O)N[C@H]3CC[C@H](N)CC3)n(Cc3cccc(C(=O)NCCC(=O)O)c3)c2c1` [Compound I-259, 3-(3-((2-(((1r,4r)-4-Amiocyclohexyl)carbamoyl)-6-carbamimidoyl-1H-indol-1-yl)methyl)benzamido)propanoic Acid], the inhibition at 1 µM lay within 25 to 50%.

Consider `N=C(N)c1ccc2cc(C(=O)NC3CCC(F)(F)CC3)n(Cc3cccc(NC(=O)CCN)c3)c2c1` [Compound I-260, 1-(3-(3-Aminopropanamido)benzyl)-6-carbamimidoyl-N-(4,4-difluorocyclohexyl)-1H-indole-2-carboxamide], for which the inhibition at 1 µM lay in the range of 0 to 25%.

With `N=C(N)c1ccc2cc(C(=O)N[C@H]3CC[C@H](N)CC3)n(Cc3ccc(N)cc3)c2c1` [Compound I-261, 1-(4-Aminobenzyl)-N-((1r,4r)-4-aminocyclohexyl)-6-carbamimidoyl-1H-indole-2-carboxamide], the inhibition at 1 µM fell in the range of 25 to 50%.

Consider `N=C(N)c1ccc2cc(C(=O)N[C@H]3CC[C@H](N)CC3)n(Cc3ccc(NC(=O)CCN)cc3)c2c1` [Compound I-262, N-((1r,4r)-4-Aminocyclohexyl)-1-(4-(3-aminopropanamido)benzyl)-6-carbamimidoyl-1H-indole-2-carboxamide], for which the inhibition at 1 µM is 25 to 50%.

As for `N=C(N)c1ccc2cc(C(=O)NC3CC=CCC3)n(Cc3ccc(NC(=O)CCN)cc3)c2c1` (stereo not drawn) [Compound I-264, 1-(4-(3-Aminopropanamido)benzyl)-6-carbamimidoyl-N-(cyclohex-3-en-1-yl)-1H-indole-2-carboxamide], the inhibition at 1 µM was 0 to 25%.

On to `N=C(N)c1ccc2cc(C(=O)Nc3nc4ccccc4s3)n(Cc3ccc(C(N)=O)cc3)c2c1` [Compound I-265], for which the inhibition at 1 µM was in the range of 0 to 25%.

In the case of `Cc1csc(NC(=O)c2cc3ccc(C(=N)N)cc3n2Cc2ccc(C(N)=O)cc2)n1` [Compound I-266], the inhibition at 1 µM was 0 to 25%.

Consider `NC(=O)c1ccc(Cn2c(C(=O)Nc3cccc(N4CCCC4)c3)cc3ccc(/C(N)=N/O)cc32)cc1` [Compound I-267, 1-(4-Carbamoylbenzyl)-6-(N′-hydroxycarbamimidoyl)-N-(3-(pyrrolidin-1-yl)phenyl)-1H-indole-2-carboxamide], for which the inhibition at 1 µM is 0 to 25%.

Consider `NC(=O)c1ccc(Cn2c(C(=O)Nc3ccc(N4CCCC4)cc3)cc3ccc(/C(N)=N/O)cc32)cc1` [Compound I-268, 1-(4-Carbamoylbenzyl)-6-(N′-hydroxycarbamimidoyl)-N-(4-(pyrrolidin-1-yl)phenyl)-1H-indole-2-carboxamide], for which the inhibition at 1 µM was in the range of 0 to 25%.

On to `NC(=O)c1ccc(Cn2c(C(=O)Nc3cc(N4CCCC4)ccn3)cc3ccc(/C(N)=N/O)cc32)cc1` [Compound I-269, 1-(4-Carbamoylbenzyl)-6-(N′-hydroxycarbamimidoyl)-N-(4-(pyrrolidin-1-yl)pyridin-2-yl)-1H-indole-2-carboxamide], for which the inhibition at 1 µM lay within 0 to 25%.

As to `CC(C)CCn1c(C(=O)N2CCC(F)CC2)cc2ccc(C(=N)N)cc21` [Compound I-270, 2-(4-Fluoropiperidine-1-carbonyl)-1-isopentyl-1H-indole-6-carboximidamide], the inhibition at 1 µM was in the range of 0 to 25%.

Turning to `CC(C)CCn1c(C(=O)N2CCC(F)(F)CC2)cc2ccc(C(=N)N)cc21` [Compound I-271], the inhibition at 1 µM lay within 0 to 25%.

Consider `CC(C)CCn1c(C(=O)N2CC[C@H](F)C2)cc2ccc(C(=N)N)cc21` [Compound I-272], for which the inhibition at 1 µM fell in the range of 0 to 25%.

For the molecule `CC(C)CCn1c(C(=O)N2CCC(F)(F)C2)cc2ccc(C(=N)N)cc21` [Compound I-273], the inhibition at 1 µM was in the range of 0 to 25%.

Consider `N=C(N)c1ccc2cc(C(=O)N3CCC(CCN)CC3)n(CCCN)c2c1` [Compound I-274], for which the inhibition at 1 µM is 25 to 50%.

Turning to `N=C(N)c1ccc2cc(C(=O)N3CCC(CCN)CC3)n(CCC(N)=O)c2c1` [Compound I-276], the inhibition at 1 µM is 25 to 50%.

Turning to `N=C(N)c1ccc2cc(C(=O)N3CCC(CCN)CC3)n(Cc3ccc(C(F)(F)F)cc3)c2c1` [Compound I-278], the inhibition at 1 µM is 0 to 25%.

For `N=C(N)c1ccc2cc(C(=O)N3CC[C@H](F)C3)n(Cc3ccc(C(F)(F)F)cc3)c2c1` [Compound I-279], the inhibition at 1 µM was 0 to 25%.

On to `N=C(N)c1ccc2cc(C(=O)N3CCC(CCO)CC3)n(Cc3ccc(C(F)(F)F)cc3)c2c1` [Compound I-280], for which the inhibition at 1 µM lay within 0 to 25%.

Take `CCOC(=O)CCCC1CCN(C(=O)c2cc3ccc(C(=N)N)cc3n2Cc2ccc(C(F)(F)F)cc2)CC1` [Compound I-281]: the inhibition at 1 µM was in the range of 0 to 25%.

For `N=C(N)c1ccc2cc(C(=O)N3CCC(F)CC3)n(Cc3ccc(C(F)(F)F)cc3)c2c1` [Compound I-282], the inhibition at 1 µM fell in the range of 0 to 25%.

As for `N=C(N)c1ccc2cc(C(=O)N3CCC(F)(F)CC3)n(Cc3ccc(C(F)(F)F)cc3)c2c1` [Compound I-283], the inhibition at 1 µM was 0 to 25%.

For the molecule `N=C(N)c1ccc2cc(C(=O)N3CCC(F)(F)C3)n(Cc3ccc(C(F)(F)F)cc3)c2c1` [Compound I-285], the inhibition at 1 µM lay within 0 to 25%.

As for `N=C(N)c1ccc2cc(C(=O)N3CCC(CCNC(=O)c4ccccn4)CC3)n(Cc3ccc(C(F)(F)F)cc3)c2c1` [Compound I-286], the inhibition at 1 µM is 0 to 25%.

With `N=C(N)c1ccc2cc(C(=O)N3CCC(CCOCCO)CC3)n(Cc3ccc(C(F)(F)F)cc3)c2c1` [Compound I-287], the inhibition at 1 µM fell in the range of 0 to 25%.

With `N=C(N)c1ccc2cc(C(=O)N3CCC(CCN)CC3)n(Cc3ccc(OC(F)(F)F)cc3)c2c1` [Compound I-288], the inhibition at 1 µM was in the range of 0 to 25%.

For the molecule `N=C(N)c1ccc2cc(C(=O)N3CCC(F)CC3)n(Cc3ccc(OC(F)(F)F)cc3)c2c1` [Compound I-289], the inhibition at 1 µM fell in the range of 0 to 25%.

As to `N=C(N)c1ccc2cc(C(=O)N3CCC(F)(F)CC3)n(Cc3ccc(OC(F)(F)F)cc3)c2c1` [Compound I-290], the inhibition at 1 µM was in the range of 0 to 25%.

As for `N=C(N)c1ccc2cc(C(=O)N3CCC(CF)CC3)n(Cc3ccc(OC(F)(F)F)cc3)c2c1` [Compound I-291], the inhibition at 1 µM is 0 to 25%.

In the case of `CC(C)c1ccc(Cn2c(C(=O)N3CC[C@H](F)C3)cc3ccc(C(=N)N)cc32)cc1` [Compound I-293], the inhibition at 1 µM is 0 to 25%.

As to `CC(C)c1ccc(Cn2c(C(=O)N3CCC(F)(F)C3)cc3ccc(C(=N)N)cc32)cc1` [Compound I-294], the inhibition at 1 µM fell in the range of 0 to 25%.

Take `CC(C)c1ccc(Cn2c(C(=O)N3CCC(F)CC3)cc3ccc(C(=N)N)cc32)cc1` [Compound I-295]: the inhibition at 1 µM lay within 0 to 25%.

Turning to `CC(C)c1ccc(Cn2c(C(=O)N3CCC(F)(F)CC3)cc3ccc(C(=N)N)cc32)cc1` [Compound I-296], the inhibition at 1 µM fell in the range of 0 to 25%.

In the case of `CC(C)c1ccc(Cn2c(C(=O)N3CCC(CF)CC3)cc3ccc(C(=N)N)cc32)cc1` [Compound I-297], the inhibition at 1 µM is 0 to 25%.

Take `CC(C)(C)c1ccc(Cn2c(C(=O)N3CC[C@H](F)C3)cc3ccc(C(=N)N)cc32)cc1` [Compound I-298]: the inhibition at 1 µM lay within 25 to 50%.

In the case of `N=C(N)c1ccc2cc(C(=O)N3CCC(CCN)CC3)n(CCc3ccccc3)c2c1` [Compound I-299], the inhibition at 1 µM was in the range of 25 to 50%.

For the molecule `N=C(N)c1ccc2cc(C(=O)N3CC[C@@H](N)C3)n(CCc3ccccc3)c2c1` [Compound I-300], the inhibition at 1 µM was 25 to 50%.

For the molecule `N=C(N)c1ccc2cc(C(=O)N3CCC(CCN)CC3)n(CCc3ccc(F)cc3)c2c1` [Compound I-301], the inhibition at 1 µM is 25 to 50%.
